Results published in ChEMBL document CHEMBL1157033, “Developing a complete pharmacology for AMPA receptors: a perspective on subtype-selective ligands” (Bioorg Med Chem, 2010).
pEC50, pIC50, pKi: −log10 of the molar value.

Key:
[1] = target: T1, Glutamate receptor 2 (Homo sapiens, UniProt P42262); experiment: Activity at human recombinant GluA2 flip isoform expressed in HEK203 cells assessed as blocked of receptor desensitization
[2] = target: T1, Glutamate receptor 2; experiment: Activity at human recombinant GluA2 flop isoform expressed in HEK203 cells assessed as blocked of receptor desensitization
[3] = target: T2, Glutamate receptor 1 (Homo sapiens, UniProt P42261); experiment: Activity at human recombinant GluA1 receptor flip isoform expressed in HEK293 cells assessed as effect on glutamate-induced calcium flux by Fluo-4/AM staining-based fluorescence assay; assay type: cell-based
T2 sequence (P42261 whole entry, canonical isoform): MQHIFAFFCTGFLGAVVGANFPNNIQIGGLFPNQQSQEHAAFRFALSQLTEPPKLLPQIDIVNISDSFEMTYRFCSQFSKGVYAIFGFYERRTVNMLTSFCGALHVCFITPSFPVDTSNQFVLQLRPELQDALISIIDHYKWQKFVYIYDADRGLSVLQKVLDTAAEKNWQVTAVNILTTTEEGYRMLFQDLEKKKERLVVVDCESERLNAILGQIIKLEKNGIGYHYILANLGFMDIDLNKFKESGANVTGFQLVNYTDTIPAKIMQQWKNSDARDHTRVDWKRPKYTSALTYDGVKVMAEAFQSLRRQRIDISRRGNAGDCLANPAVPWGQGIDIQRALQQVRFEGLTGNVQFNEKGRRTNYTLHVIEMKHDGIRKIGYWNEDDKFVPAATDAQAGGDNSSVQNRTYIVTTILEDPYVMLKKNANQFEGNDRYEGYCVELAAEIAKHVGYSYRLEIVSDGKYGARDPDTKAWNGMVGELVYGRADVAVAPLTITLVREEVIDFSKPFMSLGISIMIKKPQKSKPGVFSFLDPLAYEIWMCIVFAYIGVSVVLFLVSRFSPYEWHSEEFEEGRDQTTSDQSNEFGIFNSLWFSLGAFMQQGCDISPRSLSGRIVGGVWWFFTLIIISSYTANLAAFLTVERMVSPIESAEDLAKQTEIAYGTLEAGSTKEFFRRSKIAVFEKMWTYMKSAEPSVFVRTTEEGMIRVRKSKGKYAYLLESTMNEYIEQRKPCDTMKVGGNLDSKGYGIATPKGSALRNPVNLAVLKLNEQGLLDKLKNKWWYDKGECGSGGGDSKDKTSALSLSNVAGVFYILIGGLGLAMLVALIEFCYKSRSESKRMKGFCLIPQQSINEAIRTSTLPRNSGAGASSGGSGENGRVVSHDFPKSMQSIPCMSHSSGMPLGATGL

[4] = target: T1, Glutamate receptor 2; experiment: Activity at human recombinant GluA2 receptor flip isoform expressed in HEK293 cells assessed as effect on glutamate-induced calcium flux by Fluo-4/AM staining-based fluorescence assay; assay type: cell-based
[5] = target: T1, Glutamate receptor 2; experiment: Activity at human recombinant GluA2 receptor flop isoform expressed in HEK293 cells assessed as effect on glutamate-induced calcium flux by Fluo-4/AM staining-based fluorescence assay; assay type: cell-based
[6] = target: T3, Glutamate receptor 3 (Homo sapiens, UniProt P42263); experiment: Activity at human recombinant GluA3 receptor flip isoform expressed in HEK293 cells assessed as effect on glutamate-induced calcium flux by Fluo-4/AM staining-based fluorescence assay; assay type: cell-based
T3 sequence (P42263 whole entry, canonical isoform): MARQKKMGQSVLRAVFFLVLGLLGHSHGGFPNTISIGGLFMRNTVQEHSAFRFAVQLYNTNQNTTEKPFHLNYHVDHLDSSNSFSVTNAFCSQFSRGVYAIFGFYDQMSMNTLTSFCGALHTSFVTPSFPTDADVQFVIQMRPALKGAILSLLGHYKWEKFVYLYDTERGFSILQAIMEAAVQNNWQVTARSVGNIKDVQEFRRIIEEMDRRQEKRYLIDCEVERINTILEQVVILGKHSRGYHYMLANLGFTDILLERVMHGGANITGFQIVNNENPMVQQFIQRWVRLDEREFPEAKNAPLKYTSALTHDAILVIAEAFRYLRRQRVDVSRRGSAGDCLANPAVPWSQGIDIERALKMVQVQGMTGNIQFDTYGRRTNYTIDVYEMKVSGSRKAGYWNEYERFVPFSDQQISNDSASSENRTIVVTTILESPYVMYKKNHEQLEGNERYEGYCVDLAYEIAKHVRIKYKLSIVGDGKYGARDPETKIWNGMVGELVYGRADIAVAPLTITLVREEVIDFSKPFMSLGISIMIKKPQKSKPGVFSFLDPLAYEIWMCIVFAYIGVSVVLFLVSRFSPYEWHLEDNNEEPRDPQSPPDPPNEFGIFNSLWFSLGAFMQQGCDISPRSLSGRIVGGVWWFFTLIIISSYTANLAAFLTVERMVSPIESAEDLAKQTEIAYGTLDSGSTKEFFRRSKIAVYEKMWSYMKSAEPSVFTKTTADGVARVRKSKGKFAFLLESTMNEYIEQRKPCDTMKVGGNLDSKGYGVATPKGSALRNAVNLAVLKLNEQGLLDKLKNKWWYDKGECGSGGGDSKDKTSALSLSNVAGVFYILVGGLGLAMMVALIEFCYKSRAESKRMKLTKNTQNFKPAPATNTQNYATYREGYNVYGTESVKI

[7] = Activity at human recombinant GluA4 receptor flip isoform expressed in HEK293 cells assessed as effect on glutamate-induced calcium flux by Fluo-4/AM staining-based fluorescence assay; assay type: cell-based
[8] = target: T2, Glutamate receptor 1; experiment: Activity at recombinant GluA1 receptor flop isoform expressed in Xenopus oocytes assessed as effect of 100 uM kainate-induced current by patch clamp electrophysiological assay; assay type: cell-based, Oocyte
[9] = target: T4, Glutamate receptor AMPA 1/2 (Homo sapiens, UniProt P42261+P42262); experiment: Activity at recombinant GluA1A2 receptor flop isoform expressed in Xenopus oocytes assessed as effect of 100 uM kainate-induced current by patch clamp electrophysiological assay; assay type: cell-based, Oocyte
T4 sequence (P42262 whole entry, canonical isoform): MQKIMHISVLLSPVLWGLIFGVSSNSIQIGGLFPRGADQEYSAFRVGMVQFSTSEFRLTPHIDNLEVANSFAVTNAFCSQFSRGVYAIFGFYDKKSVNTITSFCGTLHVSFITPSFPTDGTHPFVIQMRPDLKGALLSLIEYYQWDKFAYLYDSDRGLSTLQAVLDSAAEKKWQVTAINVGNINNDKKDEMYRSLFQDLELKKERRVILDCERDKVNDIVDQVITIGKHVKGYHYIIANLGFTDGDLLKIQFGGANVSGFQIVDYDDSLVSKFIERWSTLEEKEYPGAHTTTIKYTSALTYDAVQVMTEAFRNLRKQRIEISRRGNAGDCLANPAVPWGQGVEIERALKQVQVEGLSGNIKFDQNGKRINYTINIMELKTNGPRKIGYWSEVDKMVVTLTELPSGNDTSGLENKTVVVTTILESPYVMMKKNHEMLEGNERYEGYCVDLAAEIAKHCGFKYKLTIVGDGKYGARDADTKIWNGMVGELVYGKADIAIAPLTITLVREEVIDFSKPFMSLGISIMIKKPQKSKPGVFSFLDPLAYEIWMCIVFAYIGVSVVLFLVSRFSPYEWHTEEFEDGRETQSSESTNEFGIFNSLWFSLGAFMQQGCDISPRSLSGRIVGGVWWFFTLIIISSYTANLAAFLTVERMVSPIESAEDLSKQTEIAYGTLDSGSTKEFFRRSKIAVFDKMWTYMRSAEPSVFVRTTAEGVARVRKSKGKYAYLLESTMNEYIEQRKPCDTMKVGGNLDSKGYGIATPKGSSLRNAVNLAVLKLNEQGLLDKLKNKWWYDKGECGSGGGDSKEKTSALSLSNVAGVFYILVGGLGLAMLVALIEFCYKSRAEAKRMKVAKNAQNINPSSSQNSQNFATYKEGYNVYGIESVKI
T4 sequence (P42261 whole entry, canonical isoform): as the sequence (P42261 whole entry, canonical isoform) above

[10] = target: T2, Glutamate receptor 1; assay type: cell-based, Oocyte
[11] = target: T3, Glutamate receptor 3; experiment: Inhibition of recombinant GluA3 receptor flip isoform expressed in Xenopus oocytes assessed as inhibition of […] uM kainate-induced current by patch clamp electrophysiological assay; assay type: cell-based, Oocyte
[12] = Inhibition of recombinant GluA4 receptor flip isoform expressed in Xenopus oocytes assessed as inhibition of […] uM kainate-induced current by patch clamp electrophysiological assay; assay type: cell-based; conditions: Oocyte
[13] = target: T4, Glutamate receptor AMPA 1/2; assay type: cell-based, Oocyte
[14] = target: T2, Glutamate receptor 1; assay type: cell-based, Oocyte; remark: listed apart in the source
[15] = target: T3, Glutamate receptor 3; experiment: Inhibition of GluA3 receptor expressed in Xenopus oocytes assessed as inhibition of […] uM kainate-induced current by patch clamp electrophysiological assay; assay type: cell-based, Oocyte
[16] = target: Glutamate receptor 4 (Homo sapiens, UniProt P48058); experiment: Inhibition of GluA4 receptor expressed in Xenopus oocytes assessed as inhibition of […] uM kainate-induced current by patch clamp electrophysiological assay; assay type: cell-based, Oocyte
Chain of Glutamate receptor 4 (P48058 whole entry): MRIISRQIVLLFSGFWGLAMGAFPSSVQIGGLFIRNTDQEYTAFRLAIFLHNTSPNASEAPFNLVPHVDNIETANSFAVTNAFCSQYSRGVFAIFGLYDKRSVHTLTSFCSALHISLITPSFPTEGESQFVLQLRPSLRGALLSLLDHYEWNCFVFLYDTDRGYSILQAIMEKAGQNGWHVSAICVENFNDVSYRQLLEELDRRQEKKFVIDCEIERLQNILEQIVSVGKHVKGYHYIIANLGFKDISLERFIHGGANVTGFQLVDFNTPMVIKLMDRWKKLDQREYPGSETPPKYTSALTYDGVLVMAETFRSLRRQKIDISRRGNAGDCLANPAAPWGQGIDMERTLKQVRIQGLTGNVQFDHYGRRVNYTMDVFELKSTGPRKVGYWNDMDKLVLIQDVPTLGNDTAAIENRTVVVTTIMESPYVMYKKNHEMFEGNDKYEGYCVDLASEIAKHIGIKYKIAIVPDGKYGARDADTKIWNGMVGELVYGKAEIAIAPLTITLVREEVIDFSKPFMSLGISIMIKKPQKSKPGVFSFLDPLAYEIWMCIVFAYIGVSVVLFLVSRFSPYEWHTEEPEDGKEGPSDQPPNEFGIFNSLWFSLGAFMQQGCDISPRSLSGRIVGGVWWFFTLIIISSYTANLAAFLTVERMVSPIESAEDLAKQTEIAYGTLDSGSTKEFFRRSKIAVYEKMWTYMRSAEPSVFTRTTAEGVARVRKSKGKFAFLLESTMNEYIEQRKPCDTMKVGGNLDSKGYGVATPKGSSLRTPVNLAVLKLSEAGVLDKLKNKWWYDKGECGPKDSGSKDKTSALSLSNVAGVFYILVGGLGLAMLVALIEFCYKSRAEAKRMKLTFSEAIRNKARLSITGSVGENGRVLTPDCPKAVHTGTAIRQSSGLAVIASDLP

[17] = target: Glutamate receptor 1 (Rattus norvegicus, UniProt P19490); assay type: cell-based, Oocyte
Chain of Glutamate receptor 1 (Rattus norvegicus, UniProt P19490) (P19490 whole entry): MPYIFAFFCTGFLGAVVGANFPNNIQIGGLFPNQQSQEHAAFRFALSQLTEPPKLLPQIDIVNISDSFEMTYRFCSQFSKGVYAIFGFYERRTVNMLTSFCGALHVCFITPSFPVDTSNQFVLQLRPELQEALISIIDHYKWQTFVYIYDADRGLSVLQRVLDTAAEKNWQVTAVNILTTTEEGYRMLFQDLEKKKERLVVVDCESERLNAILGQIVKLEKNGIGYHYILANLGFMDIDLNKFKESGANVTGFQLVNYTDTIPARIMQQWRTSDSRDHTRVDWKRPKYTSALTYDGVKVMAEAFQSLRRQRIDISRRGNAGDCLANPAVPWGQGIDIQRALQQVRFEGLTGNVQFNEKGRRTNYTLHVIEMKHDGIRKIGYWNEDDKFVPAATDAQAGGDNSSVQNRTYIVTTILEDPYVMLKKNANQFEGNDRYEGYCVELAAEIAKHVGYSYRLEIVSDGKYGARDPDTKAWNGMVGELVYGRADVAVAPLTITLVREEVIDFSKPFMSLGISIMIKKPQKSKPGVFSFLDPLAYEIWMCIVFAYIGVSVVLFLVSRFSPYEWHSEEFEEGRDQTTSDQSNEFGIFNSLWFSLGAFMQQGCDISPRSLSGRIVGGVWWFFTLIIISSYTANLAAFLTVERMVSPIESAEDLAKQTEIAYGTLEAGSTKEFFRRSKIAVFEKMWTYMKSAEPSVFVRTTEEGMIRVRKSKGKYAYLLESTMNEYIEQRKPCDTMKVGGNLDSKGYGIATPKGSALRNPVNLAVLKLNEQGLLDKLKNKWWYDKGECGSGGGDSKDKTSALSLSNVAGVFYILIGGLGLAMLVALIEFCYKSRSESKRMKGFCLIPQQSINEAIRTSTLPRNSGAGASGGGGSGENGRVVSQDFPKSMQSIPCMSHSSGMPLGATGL

[18] = target: Glutamate receptor AMPA 1/2 (Rattus norvegicus, UniProt P19490+P19491); assay type: cell-based, Oocyte
Chain of Glutamate receptor AMPA 1/2 (Rattus norvegicus, UniProt P19490+P19491) (P19491 whole entry, canonical isoform): as the sequence (P42262 whole entry, canonical isoform) above, with M191T, T291A, R764G, A852P counted along it
Chain of Glutamate receptor AMPA 1/2 (Rattus norvegicus, UniProt P19490+P19491) (P19490 whole entry, canonical isoform): as the sequence (P19490 whole entry) above

[19] = target: T2, Glutamate receptor 1; experiment: Inhibition of recombinant GluA1 receptor flip isoform expressed in Xenopus oocytes assessed as inhibition of […] uM glutamate-induced current; assay type: cell-based, Oocyte
[20] = target: T4, Glutamate receptor AMPA 1/2; experiment: Inhibition of recombinant GluA1A2 receptor flip isoform expressed in Xenopus oocytes assessed as inhibition of […] uM glutamate-induced current; assay type: cell-based, Oocyte
[21] = target: T2, Glutamate receptor 1; conditions: Oocyte; at 100 µM
[22] = target: T1, Glutamate receptor 2; conditions: Oocyte; at 100 µM
[23] = target: T3, Glutamate receptor 3; conditions: Oocyte; at 100 µM
[24] = target: Glutamate receptor AMPA 1/2 (Homo sapiens) (UniProt P42262+P42261); conditions: Oocyte; at 100 µM
[25] = target: Glutamate receptor AMPA 2/3 (Homo sapiens) (UniProt P42263+P42262); conditions: Oocyte; at 100 µM

T1 sequence (P42262 whole entry, canonical isoform): as the sequence (P42262 whole entry, canonical isoform) above

CC(CNS(=O)(=O)C(C)C)C1CCC(c2ccc(C#N)cc2)CC1 (stereo not given)
pEC50 [1]: 4.82
pEC50 [2]: 5.84
pEC50 [3]: 5.25
pEC50 [4]: 6.82
pEC50 [5]: 5.84
pEC50 [6]: 5.78
pEC50 [7]: 6.68

N=C(N)NCCC[C@H](N)C(=O)NCCCNCCCNCCCCCNC(=O)[C@H](CC(N)=O)NC(=O)Cc1ccc(O)cc1O
pIC50 [8]: 5.47
pIC50 [9]: 3.52
pIC50 [10]: 6.46
pIC50 [11]: 6.64
pIC50 [12]: 6.37
pIC50 [13]: 5.26
pIC50 [14]: 6.46
pIC50 [15]: 6.64
pIC50 [16]: 6.37
pIC50 [17]: 5.47
pIC50 [18]: 3.52

CCCC(=O)N[C@@H](Cc1ccc(O)cc1)C(=O)NCCCCCCCNCCCCN
pKi [19]: 6.77
pKi [20]: 5.80
inhibition [21]: 100%
inhibition [22]: 2.1%
inhibition [23]: 100%
inhibition [24]: 84.3%
inhibition [25]: 2.6%
